Source: the supplement of paper PMC11061612

Columns and labels:
Test in all cases: Bliss excess, mean over the matrix (fraction); higher = more synergy
[1] = tested on: NCI-H1573 (Lung Adenocarcinoma)
In short: (§1)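 Cell lines in DMEM/F12 or RPMI with 10% FBS were plated in 1536-well plates, held 24 hours at 37°C, 5% CO2, then given two-drug dose matrices for 72 hours (DMSO typically 0.2%). Viability was read by CellTiter-Glo 2.0 luminescence and scaled as inhibition from 0 (vehicle wells) to 1 (blank wells). Combination Emax is the second-highest inhibition in the matrix; Bliss excess is observed combination effect minus expected EA + EB − EA·EB, EA and EB being single-agent effects.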

[2] = tested on: JHH-7 (Hepatocellular Carcinoma)
In short: as §1

[3] = tested on: SCC-3 (B-Cell Non-Hodgkin's Lymphoma)
In short: as §1

[4] = tested on: SNU-C1 (Colorectal Carcinoma)
In short: as §1

[5] = tested on: NCI-H2405 (Lung Adenocarcinoma)
In short: as §1

NB7 (Neuroblastoma) = tested on: NB7 (Neuroblastoma)
In short: as §1

A704 (Kidney Carcinoma) = tested on: A704 (Kidney Carcinoma)
In short: as §1

[6] = tested on: NCI-H322M (Lung Adenocarcinoma)
In short: as §1

[7] = tested on: LC4-1 (B-Lymphoblastic Leukemia)
In short: as §1

[8] = tested on: KINGS-1 (Low Grade Glioma)
In short: as §1

[9] = tested on: NCI-H513 (Other Solid Carcinomas)
In short: as §1

[10] = tested on: KLE (Endometrial Carcinoma)
In short: as §1

EW-13 (Ewing's Sarcoma) = tested on: EW-13 (Ewing's Sarcoma)
In short: as §1

[11] = tested on: KYSE-50 (Esophageal Squamous Cell Carcinoma)
In short: as §1

[12] = tested on: OCUB-M (Breast Carcinoma)
In short: as §1

[13] = tested on: PFSK-1 (Other Solid Carcinomas)
In short: as §1

[14] = tested on: OVISE (Ovarian Carcinoma)
In short: as §1

[15] = tested on: SCC-9 (Oral Cavity Carcinoma)
In short: as §1

EW-18 (Ewing's Sarcoma) = tested on: EW-18 (Ewing's Sarcoma)
In short: as §1

[16] = tested on: NCI-N87 (Gastric Carcinoma)
In short: as §1

Compound	Bliss excess [1]	Bliss excess [2]	Bliss excess [3]	Bliss excess [4]	Bliss excess [5]	Bliss excess (NB7 (Neuroblastoma))	Bliss excess (A704 (Kidney Carcinoma))	Bliss excess [6]	Bliss excess [7]	Bliss excess [8]	Bliss excess [9]	Bliss excess [10]	Bliss excess (EW-13 (Ewing's Sarcoma))	Bliss excess [11]	Bliss excess [12]	Bliss excess [13]	Bliss excess [14]	Bliss excess [15]	Bliss excess (EW-18 (Ewing's Sarcoma))	Bliss excess [16]
NC1(C(=O)N[C@@H](CCO)c2ccc(Cl)cc2)CCN(c2ncnc3[nH]ccc23)CC1 [Capivasertib] + CC(=O)c1c(C)c2cnc(Nc3ccc(N4CCNCC4)cn3)nc2n(C2CCCC2)c1=O [Palbociclib] (first compound max 10 µM, 7x7, partner max 10 µM)	-0.0204	-0.0238	0.0001	-0.0506	-0.0405	0.0291	-0.0413	0.0072	0.0772	0.0102	-0.0061	-0.0214	-0.0161	-0.0129	-0.0127	0.0014	-0.0235	0.0004	-0.0276	-0.0066
NC1(C(=O)N[C@@H](CCO)c2ccc(Cl)cc2)CCN(c2ncnc3[nH]ccc23)CC1 [Capivasertib] + CC(C)n1c(=O)n(C)c2cnc3cc(F)c(-c4ccc(OCCCN5CCCCC5)nc4)cc3c21 [AZD1390] (first compound max 10 µM, 7x7, partner max 0.3 µM)	-0.111	-0.0584	-0.0169	-0.068	-0.0513	0.0125	-0.0703	-0.0166	0.0461	-0.0398	-0.0506	-0.0455	-0.024	-0.0723	-0.0424	-0.0598	-0.042	-0.027	-0.084	-0.0223
NC1(C(=O)N[C@@H](CCO)c2ccc(Cl)cc2)CCN(c2ncnc3[nH]ccc23)CC1 [Capivasertib] + CCN(CCO)CCCOc1ccc2c(Nc3cc(CC(=O)Nc4cccc(F)c4)[nH]n3)ncnc2c1 [AZD2811] (first compound max 10 µM, 7x7, partner max 1 µM)	-0.0074	-0.0692	0.0443	-0.0407	-0.0535	0.0377	-0.0375	0.0203	-0.0221	-0.0012	-0.0479	-0.0611	0.007	0.0278	-0.0217	-0.027	0.0015	-0.0281	-0.0358	-0.0529
NC1(C(=O)N[C@@H](CCO)c2ccc(Cl)cc2)CCN(c2ncnc3[nH]ccc23)CC1 [Capivasertib] + COc1nnc2ccc(N3CCC(c4ccc(OCCN5CCN(C)C(=O)[C@H]5C)cc4)CC3)nn12 [AZD5153] (first compound max 10 µM, 7x7, partner max 1 µM)	-0.0011	0.0156	0.0248	-0.0147	0.0138	-0.0483	0.0204	-0.0144	0.002	-0.0017	-0.0222	-0.0329	0.0153	-0.0054	0.0223	-0.0158	-0.0055	0.0627	0.0119	-0.0314
NC1(C(=O)N[C@@H](CCO)c2ccc(Cl)cc2)CCN(c2ncnc3[nH]ccc23)CC1 [Capivasertib] + C[C@@H]1COCCN1C2=NC(=NC(=C2)C3(CC3)[S@](=N)(=O)C)C4=C5C=CNC5=NC=C4 [AZD6738] (first compound max 10 µM, 7x7, partner max 10 µM)	-0.0522	-0.0404	-0.0037	-0.0534	-0.0513	-0.0518	-0.0571	-0.0797	0.0099	-0.0197	-0.0601	-0.0692	0.0091	-0.0673	-0.0241	-0.0956	-0.0459	-0.0111	-0.0504	-0.0567
NC1(C(=O)N[C@@H](CCO)c2ccc(Cl)cc2)CCN(c2ncnc3[nH]ccc23)CC1 [Capivasertib] + Cn1cnc2c(F)c(Nc3ccc(Br)cc3Cl)c(C(=O)NOCCO)cc21 [Selumetinib] (first compound max 10 µM, 7x7, partner max 10 µM)	0.0019	-0.0455	0.0627	-0.0085	0.0153	-0.0045	-0.0098	0.0035	0.147	0.0272	-0.0383	-0.011	0.0097	-0.036	0.0081	0.0717	-0.0063	0.145	-0.0219	0.01
Cc1nc(Nc2ncc(C(=O)Nc3c(C)cccc3Cl)s2)cc(N2CCN(CCO)CC2)n1 [Dasatinib] + CC(=O)Nc1cccc(-n2c(=O)n(C3CC3)c(=O)c3c(Nc4ccc(I)cc4F)n(C)c(=O)c(C)c32)c1 [Trametinib] (first compound max 2 µM, 7x7, partner max 1 µM)	0.0311	-0.0394	-0.0403	-0.0616	0.0721	0.0262	0.0541	0.0004	-0.0543	-0.0416	0.0273	-0.0052	-0.0443	0.043	-0.0384	-0.095	0.0504	0.0784	-0.086	-0.0339
